Tested on: THP1-Lucia cells
Assay: NF-kB-induced luminescence assay in THP1-Lucia cells
Type: cell-based, human
Conditions: in comparison to positive control R848, N=4
Procedure: THP-1 Cell Line and Culture Conditions. The THP1-Lucia™ cell line was obtained from Invivogen (San Diego, Calif.). THP1-Lucia cells, which are human monocytic cells derived from the blood of a child with leukemia, contain an NF-kB-inducible Luc reporter construct. This allows NF-kB activation to be measured by quantifying the luminescence from the secreted luciferase enzyme. THP1-Lucia cells were cultured in RPMI 1640 supplemented with 10% non-heat inactivated fetal bovine serum (FBS), 10 mM HEPES, 1.0 mM sodium pyruvate, 50 ug/ml Pen-Strep, and 100 ug/mL Normocin™. Once cultured, the cells were stored in a 37° C. incubator with 5% CO2 and a humidified atmosphere. Cells were passaged every 2-3 days and not allowed to exceed a concentration of 2.0×10^6 cells/ml media.
NF-kB-induced Luminescence Assay. THP1-Lucia cells between passage 15 and 18 and suspended in culture medium were dispensed into 384-well black clear-bottom plates (Corning 3712) at 30,000 cells/30 μl/well using a Combi liquid dispenser. […] Immediately after adding the substrate, the luminescence was read using a PerkinElmer Envision plate reader.

## CCC(C(=O)Nc1cc(-c2cn3cccnc3n2)ccc1C)c1ccccc1 (stereo not shown) [Compound 37]
  NF-κB-driven expression of luciferase in THP1 cells (in words): does not substantially activate THP1 cells

Reference: patent US11673891B2, “Imidazopyrimidine compounds and uses thereof” (Dana-Farber Cancer Institute, Inc., priority 2017, dated 2023)
